Our source for the IC50 values is patent US10370333B2 (Sanford Burnham Prebys Medical Discovery Institute, priority 2012, dated 2019).

As usually defined, the IC50 is the point on the concentration scale where inhibition reaches its midpoint.

For this test, the target named is TNAP (Homo sapiens (Human), UniProt P05186). As to the kind of experiment: TNAP (PPi) inhibition assay, pyrophosphate as substrate. In kind it is biochemical. In short, it runs like this: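 Secreted epitope-tagged human TNAP from transiently transfected COS-1 cells, dialyzed to remove phosphate. Inhibitors tested kinetically at pH 7.4 with PPi as substrate; released phosphate quantified colorimetrically with Biomol Green reagent.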

The compound `CNc1ccc(NS(=O)(=O)c2cc(OC)ccc2OC)cn1` [Example VIII-6, 2,5-Dimethoxy-N-(6-methylamino-pyridin-3-yl)-benzenesulfonamide] showed an IC50 greater than 1000 nM.

`COc1ccc(Br)cc1S(=O)(=O)Nc1ccc(N(C)C)nc1` [Example VIII-7, 5-Bromo-N-(6-(dimethylamino)pyridin-3-yl)-2-methoxybenzenesulfonamide] showed an IC50 greater than 1000 nM.

With `COc1ccc(OC)c(S(=O)(=O)Nc2ccc(N(C)C)nc2)c1` [Example VIII-8, N-(6-(Dimethylamino)pyridin-3-yl)-2,5-dimethoxybenzenesulfonamide], the IC50 is greater than 1000 nM.

With `CCN(CC)c1ccc(NS(=O)(=O)c2cc(Br)ccc2OC)cn1` [Example VIII-9, 5-Bromo-N-(6-(diethylamino)pyridin-3-yl)-2-methoxybenzenesulfonamide], the IC50 was in the range of 100 to 1000 nM.

As for `CCN(CC)c1ccc(NS(=O)(=O)c2cc(OC)ccc2OC)cn1` [Example VIII-10, N-(6-(Diethylamino)pyridin-3-yl)-2,5-dimethoxybenzenesulfonamide], the IC50 is greater than 1000 nM.

Regarding `COCCNc1ccc(NS(=O)(=O)c2cc(Br)ccc2OC)cn1` [Example VIII-11, 5-Bromo-2-methoxy-N-(6-((2-methoxyethyl)amino)pyridin-3-yl)benzenesulfonamide], the IC50 was greater than 1000 nM.

As for `COCCNc1ccc(NS(=O)(=O)c2cc(OC)ccc2OC)cn1` [Example VIII-12, 2,5-Dimethoxy-N-(6-((2-methoxyethyl)amino)pyridin-3-yl)benzenesulfonamide], the 50% inhibitory concentration (IC50) is greater than 1000 nM.

Regarding `COc1ccc(Br)cc1S(=O)(=O)Nc1ccc(NCCN(C)C)nc1` [Example VIII-13, 5-Bromo-N-(6-((2-(dimethylamino)ethyl)amino)pyridin-3-yl)-2-methoxybenzenesulfonamide], the IC50 is greater than 1000 nM.

Consider `COc1ccc(OC)c(S(=O)(=O)Nc2ccc(NCCN(C)C)nc2)c1` [Example VIII-14, N-(6-((2-(Dimethylamino)ethyl)amino)pyridin-3-yl)-2,5-dimethoxybenzenesulfonamide], for which the IC50 is greater than 1000 nM.

In turn, `COc1ccc(Br)cc1S(=O)(=O)Nc1ccc(Nc2ccccc2)nc1` [Example VIII-15, 5-Bromo-2-methoxy-N-(6-(phenylamino)pyridin-3-yl)benzenesulfonamide] showed a concentration for half-maximal inhibition (IC50) greater than 1000 nM.

Compound `COc1ccc(Br)cc1S(=O)(=O)Nc1ccc(N2CCCCC2)nc1` [Example VIII-17, 5-Bromo-2-methoxy-N-(3,4,5,6-tetrahydro-2H-[1,2′]bipyridinyl-5′-yl)-benzenesulfonamide] came in with an IC50 greater than 1000 nM.

As for `COc1ccc(OC)c(S(=O)(=O)Nc2ccc(N3CCCCC3)nc2)c1` [Example VIII-18, 2,5-Dimethoxy-N-(3,4,5,6-tetrahydro-2H-[1,2′]bipyridinyl-5′-yl)-benzenesulfonamide], the IC50 is greater than 1000 nM.

As to `COc1ccc(Br)cc1S(=O)(=O)Nc1ccc(N2CCN(C)CC2)nc1` [Example VIII-19, 5-Bromo-2-methoxy-N-[6-(4-methyl-piperazin-1-yl)-pyridin-3-yl]-benzenesulfonamide], the IC50 is greater than 1000 nM.

Consider `COc1ccc(OC)c(S(=O)(=O)Nc2ccc(N3CCN(C)CC3)nc2)c1` [Example VIII-20, 2,5-Dimethoxy-N-[6-(4-methyl-piperazin-1-yl)-pyridin-3-yl]-benzenesulfonamide], for which the IC50 is greater than 1000 nM.

Compound `O=S(=O)(Nc1cnc2ccccc2c1)c1cc(Br)ccc1OC(F)(F)F` [Example X-1, 5-Bromo-N-quinolin-3-yl-2-trifluoromethoxy-benzenesulfonamide] returned an IC50 of less than 100 nM.

Regarding `O=S(=O)(Nc1cnc2ccccc2c1)c1cc(F)ccc1OC(F)(F)F` [Example X-2, 5-Fluoro-N-quinolin-3-yl-2-trifluoromethoxy-benzenesulfonamide], the IC50 fell in the range of 100 to 1000 nM.

`O=S(=O)(Nc1cnc2ccccc2c1)c1cc(Cl)ccc1OC(F)(F)F` [Example X-3, 5-Chloro-N-quinolin-3-yl-2-trifluoromethoxy-benzenesulfonamide] had an IC50 of less than 100 nM.

As for `Cc1ccc(OC(F)(F)F)c(S(=O)(=O)Nc2cnc3ccccc3c2)c1` [Example X-4, 5-Methyl-N-quinolin-3-yl-2-trifluoromethoxy-benzenesulfonamide], the IC50 is less than 100 nM.

In turn, `Cc1ccc(OC(F)(F)F)cc1S(=O)(=O)Nc1cnc2ccccc2c1` [Example X-5, 2-methyl-N-quinolin-3-yl-5-trifluoromethoxy-benzenesulfonamide] displayed an IC50 greater than 1000 nM.

`COc1ccc(OC(F)(F)F)cc1S(=O)(=O)Nc1cnc2ccccc2c1` [Example X-6, 2-Methoxy-N-(quinolin-3-yl)-5-(trifluoromethoxy)benzenesulfonamide] displayed an IC50 of less than 100 nM.

`COc1ccc(-c2cncc(NS(=O)(=O)c3cc(Cl)ccc3OC(F)(F)F)c2)cc1` [Example XI-1, 5-chloro-N-[5-(4-methoxy-phenyl)-pyridin-3-yl]-2-trifluoromethoxy-benzenesulfonamide]: the IC50 is less than 100 nM.

Compound `COc1ccc(-c2cncc(NS(=O)(=O)c3cc(OC(F)(F)F)ccc3OC)c2)cc1` [Example XI-2, 2-Methoxy-N-(5-(4-methoxyphenyl)pyridin-3-yl)-5-(trifluoromethoxy)benzenesulfonamide] displayed an IC50 of less than 100 nM.

With `O=S(=O)(Nc1cncc(-c2ccc(OC(F)(F)F)cc2)c1)c1cc(Cl)ccc1OC(F)(F)F` [Example XI-3, 5-Chloro-2-(trifluoromethoxy)-N-(5-(4-(trifluoromethoxy)phenyl)pyridin-3-yl)benzenesulfonamide], the IC50 was in the range of 100 to 1000 nM.

As for `O=S(=O)(Nc1cncc(-c2ccc(OC(F)(F)F)cc2)c1)c1cc(Br)ccc1OC(F)(F)F` [Example XI-4, 5-Bromo-2-(trifluoromethoxy)-N-(5-(4-(trifluoromethoxy)phenyl)pyridin-3-yl)benzenesulfonamide], the IC50 was in the range of 100 to 1000 nM.

`O=S(=O)(Nc1cncc(-c2ccc(F)cc2)c1)c1cc(Cl)ccc1OC(F)(F)F` [Example XI-8, 5-Chloro-N-(5-(4-fluorophenyl)pyridin-3-yl)-2-(trifluoromethoxy)benzenesulfonamide] had an IC50 of less than 100 nM.

With `O=S(=O)(Nc1cncc(-c2ccc(F)cc2)c1)c1cc(Br)ccc1OC(F)(F)F` [Example XI-9, 5-Bromo-N-(5-(4-fluorophenyl)pyridin-3-yl)-2-(trifluoromethoxy)benzenesulfonamide], the IC50 lay within 100 to 1000 nM.

Compound `COc1ccc(OC(F)(F)F)cc1S(=O)(=O)Nc1cncc(-c2ccc(F)cc2)c1` [Example XI-10, N-(5-(4-Fluorophenyl)pyridin-3-yl)-2-methoxy-5-(trifluoromethoxy)benzenesulfonamide] returned an IC50 of 100 to 1000 nM.

Consider `N#Cc1ccc(-c2cncc(NS(=O)(=O)c3cc(Br)ccc3OC(F)(F)F)c2)cc1` [Example XI-11, 5-Bromo-N-(5-(4-cyanophenyl)pyridin-3-yl)-2-(trifluoromethoxy)benzenesulfonamide], for which the IC50 lay within 100 to 1000 nM.

As to `O=S(=O)(Nc1cncc(-c2ccco2)c1)c1cc(Cl)ccc1OC(F)(F)F` [Example XI-12, 5-Chloro-N-(5-(furan-2-yl)pyridin-3-yl)-2-(trifluoromethoxy)benzenesulfonamide], the IC50 is less than 100 nM.

On to `COc1ccc(OC(F)(F)F)cc1S(=O)(=O)Nc1cncc(-c2ccco2)c1` [Example XI-13, N-(5-(Furan-2-yl)pyridin-3-yl)-2-methoxy-5-(trifluoromethoxy)benzenesulfonamide], for which the IC50 is less than 100 nM.

With `O=S(=O)(Nc1cncc(-c2cccs2)c1)c1cc(Cl)ccc1OC(F)(F)F` [Example XI-14, 5-Chloro-N-(5-(thiophen-2-yl)pyridin-3-yl)-2-(trifluoromethoxy)benzenesulfonamide], the IC50 was 100 to 1000 nM.

As for `O=S(=O)(Nc1cncc(-c2cccs2)c1)c1cc(Br)ccc1OC(F)(F)F` [Example XI-15, 5-Bromo-N-(5-(thiophen-2-yl)pyridin-3-yl)-2-(trifluoromethoxy)benzenesulfonamide], the IC50 lay within 100 to 1000 nM.

For the compound `COc1ccc(OC(F)(F)F)cc1S(=O)(=O)Nc1cncc(-c2cccs2)c1` [Example XI-16, 2-Methoxy-N-(5-(thiophen-2-yl)pyridin-3-yl)-5-(trifluoromethoxy)benzenesulfonamide], the IC50 is less than 100 nM.

On to `O=S(=O)(Nc1cncc(-c2ccccn2)c1)c1cc(Cl)ccc1OC(F)(F)F` [Example XI-17, N-([2,3′-Bipyridin]-5′-yl)-5-chloro-2-(trifluoromethoxy)benzenesulfonamide], for which the IC50 fell in the range of 100 to 1000 nM.

Turning to `O=S(=O)(Nc1cncc(-c2ccccn2)c1)c1cc(Br)ccc1OC(F)(F)F` [Example XI-18, N-([2,3′-Bipyridin]-5′-yl)-5-bromo-2-(trifluoromethoxy)benzenesulfonamide], the IC50 is 100 to 1000 nM.

In turn, `COc1ccc(OC(F)(F)F)cc1S(=O)(=O)Nc1cncc(-c2ccccn2)c1` [Example XI-19, N-([2,3′-Bipyridin]-5′-yl)-2-methoxy-5-(trifluoromethoxy)benzenesulfonamide] registered an IC50 of 100 to 1000 nM.

`O=S(=O)(Nc1cncc(-c2cnccn2)c1)c1cc(Cl)ccc1OC(F)(F)F` [Example XI-20, 5-Chloro-N-(5-(pyrazin-2-yl)pyridin-3-yl)-2-(trifluoromethoxy)benzenesulfonamide] came in with an IC50 of 100 to 1000 nM.

`O=S(=O)(Nc1cncc(-c2cnccn2)c1)c1cc(Br)ccc1OC(F)(F)F` [Example XI-21, 5-Bromo-N-(5-(pyrazin-2-yl)pyridin-3-yl)-2-(trifluoromethoxy)benzenesulfonamide] showed an IC50 of 100 to 1000 nM.

As for `COc1ccc(OC(F)(F)F)cc1S(=O)(=O)Nc1cncc(-c2cnccn2)c1` [Example XI-22, 2-Methoxy-N-(5-(pyrazin-2-yl)pyridin-3-yl)-5-(trifluoromethoxy)benzenesulfonamide], the IC50 lay within 100 to 1000 nM.

`O=S(=O)(Nc1cncc(-c2ncccn2)c1)c1cc(Cl)ccc1OC(F)(F)F` [Example XI-23, 5-chloro-N-(5-(pyrimidin-2-yl)pyridin-3-yl)-2-(trifluoromethoxy)benzenesulfonamide] came in with an IC50 greater than 1000 nM.
